Measurements reported in US12668589B2, “N-formamidopyrazoline derivative as P2X3 receptor antagonist and use thereof” (HANGZHOU WESTAN PHARMACEUTICAL TECHNOLOGY CO., LTD, priority 2020, dated 2026).

Target: T1, human P2X3 (Homo sapiens, UniProt P56373)
T1 sequence (P56373 1-397): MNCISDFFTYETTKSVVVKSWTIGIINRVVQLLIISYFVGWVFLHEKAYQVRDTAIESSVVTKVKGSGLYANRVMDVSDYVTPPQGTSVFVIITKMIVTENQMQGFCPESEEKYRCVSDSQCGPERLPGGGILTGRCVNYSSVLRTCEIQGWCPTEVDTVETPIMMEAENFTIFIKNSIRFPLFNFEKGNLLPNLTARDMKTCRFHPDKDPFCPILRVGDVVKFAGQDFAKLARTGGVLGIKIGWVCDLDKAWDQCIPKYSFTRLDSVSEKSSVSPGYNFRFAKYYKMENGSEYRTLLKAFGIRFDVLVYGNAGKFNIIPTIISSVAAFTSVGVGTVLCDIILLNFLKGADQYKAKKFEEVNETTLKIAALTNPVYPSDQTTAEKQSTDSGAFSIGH
Assay: cell-based

| SMILES | IC50 [nM] |
| --- | --- |
| Cc1ccc(C2=NN(C(=O)N[C@H](C)c3ccc(C(F)(F)F)nc3)C[C@H]2N2CCOC2=O)nc1 [Compound 23a, (R)-4-(2-oxooxazolidin-3-yl)-3-(5-methylpyridin-2-yl)-N-((R)-1-(6-(trifluoromethyl)pyridin-3-yl)ethyl)-4,5-dihydro-1H-pyrazol-1-carboxamide] | 46 |
| Cc1ccc(C2=NN(C(=O)N[C@H](C)c3cnc(F)c(F)c3)C[C@@H]2N2CCOC2=O)cc1 [Compound 12] | 436 |
| Cc1ccc(C2=NN(C(=O)N[C@H](C)c3cnc(C(F)(F)F)cn3)C[C@@H]2N2CCOCC2=O)cc1 [Compound 26] | 143 |
| COC(=O)N(C)[C@H]1CN(C(=O)N[C@H](C)c2ccc(C(F)(F)F)nc2)N=C1c1ccc(OC)cc1 [Compound 16, (S)-4-(N-methyl-N-methoxycarbonylamino)-3-(4-methoxyphenyl)-N-((R)-1-(6-(trifluoromethyl)pyridin-3-yl)ethyl)-4,5-dihydro-1H-pyrazol-1-carboxamide] | 132 |
| Cc1ccc(C2=NN(C(=O)N[C@H](C)c3ccc(C(F)(F)F)nc3)C[C@H]2N2CCCC2=O)cc1 [Compound 21a] | 85 |
| COC(=O)N(C)[C@@H]1CN(C(=O)N[C@H](C)c2ccc(C(F)(F)F)nc2)N=C1c1ccc(OC)cc1 [Compound 16a, (R)-4-(N-methyl-N-methoxycarbonylamino)-3-(4-methoxyphenyl)-N-((R)-1-(6-(trifluoromethyl)pyridin-3-yl)ethyl)-4,5-dihydro-1H-pyrazol-1-carboxamide] | 88 |
| Cc1ccc(C2=NN(C(=O)N[C@H](C)c3ccc(C(F)(F)F)cn3)C[C@@H]2N2CCCC2=O)cc1 [Compound 10] | 216 |
| C[C@@H](NC(=O)N1C[C@H](N2CCOCC2=O)C(c2ccc(F)cc2)=N1)c1ccc(C(F)(F)F)nc1 [Compound 24, (S)-4-(3-oxomorpholin-4-y])-3-(4-fluorophenyl)-N-((R)-1-(2-(6-(trifluoromethyl)pyridin-3-yl)ethyl)-4,5-dihydro-1H-pyrazol-1-carboxamide] | 212 |
| CC(=O)N(C)[C@H]1CN(C(=O)N[C@H](C)c2ccc(Cl)nc2)N=C1c1ccc(C)cc1 [Compound 11] | 357 |
| CC(=O)N1CCN([C@H]2CN(C(=O)N[C@H](C)c3ccc(C#N)cc3)N=C2c2ccc(C)cc2)C1=O [Compound 8, (S)-4-(3-acetyl-2-oxoimidazolidin-1-yl)-3-(4-methylphenyl)-N-((R)-1-(4-cyanophenyl)ethyl)-4,5-dihydro-1H-pyrazol-1-carboxamide] | 793 |
| Cc1ccc(C2=NN(C(=O)N[C@H](C)c3ccc(Cl)cc3)C[C@@H]2N2CCN(C)CC2=O)cc1 [Compound 2, (S)-4-(4-methyl-2-oxopiperazin-1-yl)-3-(4-methylphenyl)-N-((R)-1-(4-chlorophenyl)ethyl)-4,5-dihydro-1H-pyrazol-1-carboxamide] | 7540 |
| CC(=O)N1CCN([C@@H]2CN(C(=O)N[C@H](C)c3ccc(C(F)(F)F)nc3)N=C2c2ccc(C)cc2)C1=O [Compound 18a, (R)-4-(3-acetyl-2-oxoimidazolidin-1-yl)-3-(4-methylphenyl)-N-((R)-1-(6-(trifluoromethyl)pyridin-3-yl)ethyl)-4,5-dihydro-1H-pyrazol-1-carboxamide] | 95 |
| C[C@@H](NC(=O)N1C[C@H](N2CCOCC2=O)C(c2ccc(Cl)cc2)=N1)c1cnc(C(F)(F)F)nc1 [Compound 35, (S)-4-(3-oxomorpholin-4-yl)-3-(4-chlorophenyl)-N-((R)-1-(2-(trifluoromethyl)pyrimidin-5-yl)ethyl)-4,5-dihydro-1H-pyrazol-1-carboxamide] | 215 |
| CC(=O)N1CCN([C@H]2CN(C(=O)N[C@H](C)c3ccc(C(F)(F)F)nc3)N=C2c2ccc(C)cc2)C1=O [Compound 18, (S)-4-(3-acetyl-2-oxoimidazolidin-1-yl)-3-(4-methylphenyl)-N-((R)-1-(6-(trifluoromethyl)pyridin-3-yl)ethyl)-4,5-dihydro-1H-pyrazol-1-carboxamide] | 173 |
| COc1ccc([C@@H](C)NC(=O)N2C[C@H](N3CCOC3=O)C(c3ccc(C)cc3)=N2)cc1OC [Compound 6] | 1230 |
